Test results published in US20230241226A1, “COMPOUNDS FOR TARGETED DEGRADATION OF CARRIER PROTEINS AND USES THEREOF” (CeMM - Forschungszentrum für Molekulare Medizin GmbH, priority 2019, published 2023).

Assays:
Assay type in all cases: cell-based
Strep/HA SLC9A6 = molecular target: T1, Strep/HA SLC9A6 (Homo sapiens, UniProt Q92581); experiment: Selectivity across SLC9 family: degradation of exogenous Strep/HA SLC9A6; details: HAP1; 250 or 750 nM; 16 hours
T1 construct: expressed in transfected cells; host or cells: HAP1 (lentiviral, pRRL Strep-HA; cDNA synthesized by Genescript)
T1 sequence (Q92581 1-669 isoform Q92581-1): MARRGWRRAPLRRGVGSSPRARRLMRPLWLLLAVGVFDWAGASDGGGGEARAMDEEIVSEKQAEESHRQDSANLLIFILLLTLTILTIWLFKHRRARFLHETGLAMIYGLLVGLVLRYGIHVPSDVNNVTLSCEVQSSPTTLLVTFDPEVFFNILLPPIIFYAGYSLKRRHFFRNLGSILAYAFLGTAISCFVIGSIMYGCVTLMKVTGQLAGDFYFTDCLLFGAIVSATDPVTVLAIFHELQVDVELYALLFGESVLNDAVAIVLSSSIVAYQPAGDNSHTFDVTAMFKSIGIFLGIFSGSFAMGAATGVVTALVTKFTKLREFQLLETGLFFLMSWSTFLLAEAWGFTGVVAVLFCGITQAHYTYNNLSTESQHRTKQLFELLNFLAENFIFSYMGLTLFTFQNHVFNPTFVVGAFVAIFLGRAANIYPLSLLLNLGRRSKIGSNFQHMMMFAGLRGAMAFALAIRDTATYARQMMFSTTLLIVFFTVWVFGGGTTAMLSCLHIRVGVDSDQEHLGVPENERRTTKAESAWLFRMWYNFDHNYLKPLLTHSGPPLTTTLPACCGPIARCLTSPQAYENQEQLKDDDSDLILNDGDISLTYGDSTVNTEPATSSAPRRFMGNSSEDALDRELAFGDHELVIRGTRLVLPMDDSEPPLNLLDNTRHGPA
Method: (§1) (E) Selectivity of d9A1-2 was tested across HAP1 cell lines expressing Strep/HASLC9A1, 9A4, 9A5, 9A8, 9A2, 9B2, 9A6, 9A9, and 9A3. Cells were treated with varying concentrations of d9A1-2 for 16 hours, after which degradation of the exogenous SLCs was monitored.
(§2) SLC1A5, SLC2A1, SLC2A3, SLC16A1, SLC38A1, SLC38A2 were obtained as gateway-compatible pENTR/pDONR vectors from the Harvard PlasmID Repository. SLC39A7 was obtained from Dharmacon, GE Healthcare. The following vectors were synthesized by Genescript: SLC4A4, SLC7A3, SLC38A9, SLC25A1, SLC9A1, SLC9A2, SLC9A3, SLC9A4, SLC9A5, SLC9A6, SLC9A7, SLC9A8, and SLC9B2. SLC30A9, SLC33A1, SLC35B2, SLC25A26, and MTCH2 were a gift from the RESOLUTE consortium. cDNAs were transferred into gateway-compatible lentiviral expression vectors: pLX305 dTAG vectors (Addgene #91797/8) or pRRL Strep-HA (described previously43, EF1a promotor driven expression) using LR recombination (ThermoFisher Scientific). […]
(§3) For immunoblotting, whole cell extracts were prepared using RIPA lysis buffer (25 mM Tris/HCl pH 7.6, 150 mM NaCl, 1% NP-40, 1% sodium deoxycholate, 0.1% SDS, EDTA-free protease inhibitor (Roche) and phosphatase inhibitors 2+3 (Sigma- Aldrich)). […] Protein extracts were quantified and normalized using the BCA assay (Thermo Scientific). […]

Strep/HA SLC9A2 = molecular target: T2, Strep/HA SLC9A2 (Homo sapiens, UniProt Q9UBY0); experiment: Selectivity across SLC9 family: degradation of exogenous Strep/HA SLC9A2; details: HAP1; 250 or 750 nM; 16 hours
T2 construct: expressed in transfected cells; host or cells: HAP1 (lentiviral, pRRL Strep-HA; cDNA synthesized by Genescript)
Method: as §1, §2, §3

dTAG-HA SLC30A9 = molecular target: T3, dTAG-HA SLC30A9 (Homo sapiens, UniProt Q6PML9+Q96SW2); experiment: Targeted degradation of dTAG-tagged SLC30A9 (western blot); details: HAP1, 0.5 µM
T3 construct: expressed in transfected cells
T3 sequence (Q6PML9 with tags, fused parts or gaps): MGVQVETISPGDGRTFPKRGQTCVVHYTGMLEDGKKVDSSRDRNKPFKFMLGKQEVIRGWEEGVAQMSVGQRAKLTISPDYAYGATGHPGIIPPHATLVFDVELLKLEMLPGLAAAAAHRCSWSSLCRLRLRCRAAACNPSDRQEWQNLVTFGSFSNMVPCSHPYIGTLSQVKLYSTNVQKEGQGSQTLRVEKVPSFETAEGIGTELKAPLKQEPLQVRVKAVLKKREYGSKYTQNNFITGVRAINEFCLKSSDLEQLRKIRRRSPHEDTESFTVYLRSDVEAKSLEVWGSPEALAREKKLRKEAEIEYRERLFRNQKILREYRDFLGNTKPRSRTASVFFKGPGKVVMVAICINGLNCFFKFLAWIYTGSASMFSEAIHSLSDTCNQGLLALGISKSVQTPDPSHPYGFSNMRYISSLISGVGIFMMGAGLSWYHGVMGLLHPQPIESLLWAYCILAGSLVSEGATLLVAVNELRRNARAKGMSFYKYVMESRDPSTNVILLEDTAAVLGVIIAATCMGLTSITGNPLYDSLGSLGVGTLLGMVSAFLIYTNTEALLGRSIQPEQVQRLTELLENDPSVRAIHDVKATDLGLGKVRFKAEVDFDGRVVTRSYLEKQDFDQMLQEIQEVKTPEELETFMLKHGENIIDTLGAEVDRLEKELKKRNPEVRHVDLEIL
T3 sequence (Q96SW2 whole entry): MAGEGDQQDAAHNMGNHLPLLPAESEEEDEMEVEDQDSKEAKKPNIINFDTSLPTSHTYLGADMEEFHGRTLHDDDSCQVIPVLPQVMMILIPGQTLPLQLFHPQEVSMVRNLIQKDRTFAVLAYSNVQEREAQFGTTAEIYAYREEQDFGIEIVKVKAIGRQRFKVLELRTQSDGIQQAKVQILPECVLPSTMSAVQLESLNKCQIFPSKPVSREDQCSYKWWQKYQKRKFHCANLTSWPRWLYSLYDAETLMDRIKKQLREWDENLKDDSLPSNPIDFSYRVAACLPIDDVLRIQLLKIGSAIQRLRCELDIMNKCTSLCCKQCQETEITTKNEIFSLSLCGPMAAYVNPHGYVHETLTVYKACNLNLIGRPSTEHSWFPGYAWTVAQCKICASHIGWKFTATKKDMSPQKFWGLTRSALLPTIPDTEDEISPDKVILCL
T3 sequence (Q16531 whole entry partner): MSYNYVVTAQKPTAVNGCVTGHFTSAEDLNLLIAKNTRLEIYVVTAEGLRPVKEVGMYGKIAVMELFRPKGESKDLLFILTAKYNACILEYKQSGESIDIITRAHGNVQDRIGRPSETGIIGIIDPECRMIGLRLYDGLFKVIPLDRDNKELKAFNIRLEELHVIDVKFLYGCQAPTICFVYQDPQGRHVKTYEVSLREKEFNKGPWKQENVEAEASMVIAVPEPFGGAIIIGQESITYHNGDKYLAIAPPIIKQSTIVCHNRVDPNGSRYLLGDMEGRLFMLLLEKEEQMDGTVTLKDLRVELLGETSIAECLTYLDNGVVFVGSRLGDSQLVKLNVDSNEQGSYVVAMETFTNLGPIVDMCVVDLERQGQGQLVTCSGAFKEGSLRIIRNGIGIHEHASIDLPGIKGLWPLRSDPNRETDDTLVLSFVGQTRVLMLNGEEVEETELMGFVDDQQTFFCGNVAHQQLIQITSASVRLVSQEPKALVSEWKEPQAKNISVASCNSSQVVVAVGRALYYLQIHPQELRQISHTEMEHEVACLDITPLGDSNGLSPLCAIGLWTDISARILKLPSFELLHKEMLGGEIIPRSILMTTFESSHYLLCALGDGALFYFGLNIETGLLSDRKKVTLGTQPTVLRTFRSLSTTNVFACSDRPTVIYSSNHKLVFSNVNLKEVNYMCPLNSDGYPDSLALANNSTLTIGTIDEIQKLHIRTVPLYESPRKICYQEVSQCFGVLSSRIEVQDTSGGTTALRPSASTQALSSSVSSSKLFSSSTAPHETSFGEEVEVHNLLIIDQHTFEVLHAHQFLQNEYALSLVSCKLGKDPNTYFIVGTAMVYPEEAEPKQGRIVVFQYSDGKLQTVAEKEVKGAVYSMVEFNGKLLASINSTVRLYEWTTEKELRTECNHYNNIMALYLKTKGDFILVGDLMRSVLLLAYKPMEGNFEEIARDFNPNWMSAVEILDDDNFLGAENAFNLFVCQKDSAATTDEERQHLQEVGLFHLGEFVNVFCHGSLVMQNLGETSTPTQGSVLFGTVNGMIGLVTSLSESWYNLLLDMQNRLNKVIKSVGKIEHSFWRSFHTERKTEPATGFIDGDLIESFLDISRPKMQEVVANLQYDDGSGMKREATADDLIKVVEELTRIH
Method: (§4) (C)HAP1 cells expressing dTAG-HA SLC1A5, 2A3, 30A9, 35B2, MTCH2, and 33A1 were treated for 24 hours with 0.5 µM of dTAG7 or dTAG13, as indicated. HAP1 cells expressing dTAG-HA SLC2A1 and 16A1 were treated for 24 hrs with 0.5 µM of dTAG7. HAP1 cell lines expressing dTAG-HA SLC39A7, dTAG-HA SLC4A4, and SLC7A3-dTAG-HA were treated for 48 hrs with 0.5 µM of dTAG13.
(§5) SLC1A5, SLC2A1, SLC2A3, SLC16A1, SLC38A1, SLC38A2 were obtained as gateway-compatible pENTR/pDONR vectors from the Harvard PlasmID Repository. SLC39A7 was obtained from Dharmacon, GE Healthcare. The following vectors were synthesized by Genescript: SLC4A4, SLC7A3, SLC38A9, SLC25A1, SLC9A1, SLC9A2, SLC9A3, SLC9A4, SLC9A5, SLC9A6, SLC9A7, SLC9A8, and SLC9B2. […]
as §3
(§6) SLCs were ectopically expressed as fusions to a mutated FKBP domain, also known as the dTAG system. […]

dTAG-HA SLC2A3 = molecular target: T4, dTAG-HA SLC2A3 (Homo sapiens, UniProt P11169+Q96SW2); experiment: Targeted degradation of dTAG-tagged SLC2A3 (western blot)
T4 construct: expressed in transfected cells
T4 sequence (P11169 with tags, fused parts or gaps): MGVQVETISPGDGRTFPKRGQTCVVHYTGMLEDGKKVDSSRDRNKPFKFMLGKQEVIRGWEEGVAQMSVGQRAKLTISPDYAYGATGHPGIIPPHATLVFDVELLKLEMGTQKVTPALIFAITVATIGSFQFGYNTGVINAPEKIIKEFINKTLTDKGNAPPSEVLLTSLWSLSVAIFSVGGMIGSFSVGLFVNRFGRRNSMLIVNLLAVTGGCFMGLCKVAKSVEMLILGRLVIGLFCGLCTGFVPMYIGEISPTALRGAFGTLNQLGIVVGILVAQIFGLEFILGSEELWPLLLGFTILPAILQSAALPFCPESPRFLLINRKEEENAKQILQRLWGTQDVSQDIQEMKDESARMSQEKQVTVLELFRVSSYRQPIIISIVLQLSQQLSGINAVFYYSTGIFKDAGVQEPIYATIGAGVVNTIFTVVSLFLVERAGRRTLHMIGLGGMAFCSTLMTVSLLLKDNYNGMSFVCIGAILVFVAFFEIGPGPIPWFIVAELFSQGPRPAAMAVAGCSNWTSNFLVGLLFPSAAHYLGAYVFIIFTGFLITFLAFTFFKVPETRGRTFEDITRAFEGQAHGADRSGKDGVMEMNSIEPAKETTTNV
T4 sequence (Q96SW2 whole entry): as the sequence (Q96SW2 whole entry) above
T4 sequence (Q16531 whole entry partner): as the sequence (Q16531 whole entry partner) above
Method: as §4
as §2, with “Scientific). For the generation of lentiviral stable overexpression cells, HEK293T cells were transfected with psPAX2 (Addgene #12260) and pMD2.G (Addgene #12259) and expression vectors using polyethylenimine (PEI). 12 hours post transfection medium was replaced with fresh medium. The medium, containing the virus, was harvested 48 hours later, filtered (0.45 µm), supplemented with 5 µg/ml Polybrene (Hexadimethrine bromide, Sigma) and added to target cells.” for “Scientific).”
as §3, §6

dTAG-HA SLC38A2 = molecular target: T5, dTAG-HA SLC38A2 (Homo sapiens, UniProt Q96QD8+Q96SW2); experiment: Targeted degradation of dTAG-tagged SLC38A2 (western blot); details: HAP1, 0.5 µM; for time to degradation of the glycosylated form (upper band) of dTAG-HA SLC38A2: time course
T5 construct: expressed in transfected cells
T5 sequence (Q96QD8 with tags, fused parts or gaps): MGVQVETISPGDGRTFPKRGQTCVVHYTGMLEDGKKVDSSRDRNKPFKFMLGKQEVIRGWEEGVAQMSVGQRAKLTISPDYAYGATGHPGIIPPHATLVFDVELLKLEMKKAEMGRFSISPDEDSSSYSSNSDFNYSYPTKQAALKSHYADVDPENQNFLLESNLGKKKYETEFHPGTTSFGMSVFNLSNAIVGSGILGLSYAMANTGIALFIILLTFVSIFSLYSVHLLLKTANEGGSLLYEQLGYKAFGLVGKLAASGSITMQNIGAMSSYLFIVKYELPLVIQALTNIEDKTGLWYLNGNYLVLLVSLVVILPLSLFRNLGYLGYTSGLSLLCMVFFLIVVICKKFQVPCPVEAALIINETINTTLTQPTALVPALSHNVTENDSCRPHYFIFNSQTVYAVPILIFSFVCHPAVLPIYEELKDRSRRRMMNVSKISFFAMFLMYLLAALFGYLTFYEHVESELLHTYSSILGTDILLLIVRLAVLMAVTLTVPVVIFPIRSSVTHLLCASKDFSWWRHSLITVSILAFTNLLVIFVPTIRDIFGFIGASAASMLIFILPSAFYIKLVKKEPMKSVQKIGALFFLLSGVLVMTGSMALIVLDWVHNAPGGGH
T5 sequence (Q96SW2 whole entry): as the sequence (Q96SW2 whole entry) above
T5 sequence (Q16531 whole entry partner): as the sequence (Q16531 whole entry partner) above
Method: (A) HAP1 cells expressing dTAG-HA SLC38A9, 38A2, or 38A1 were treated with 0.5 µM dTAG13 for 16, 24 or 48 hours.
as §2, with “Scientific). For the generation of lentiviral stable overexpression cells, HEK293T cells were transfected with psPAX2 (Addgene #12260) and pMD2.G (Addgene #12259) and expression vectors using polyethylenimine (PEI). 12 hours post transfection medium was replaced with fresh medium. The medium, containing the virus, was harvested 48 hours later, filtered (0.45 µm), supplemented with 5 µg/ml Polybrene (Hexadimethrine bromide, Sigma) and added to target cells.” for “Scientific).”
as §3
SLCs were ectopically expressed as fusions to a mutated FKBP domain, also known as the dTAG system. […] Each of the tested SLCs was stably expressed in HAP1 cells, and subcellular localization was assessed by immunofluorescence microscopy (FIG. 1B). […]

dTAG-HA SLC1A5 = molecular target: T6, dTAG-HA SLC1A5 (Homo sapiens, UniProt Q15758+Q96SW2); experiment: Targeted degradation of dTAG-tagged SLC1A5 (western blot); details: 0.5 µM
T6 construct: expressed in transfected cells; also LOVO, SW620, CAKI, SW480
T6 sequence (Q15758 with tags, fused parts or gaps): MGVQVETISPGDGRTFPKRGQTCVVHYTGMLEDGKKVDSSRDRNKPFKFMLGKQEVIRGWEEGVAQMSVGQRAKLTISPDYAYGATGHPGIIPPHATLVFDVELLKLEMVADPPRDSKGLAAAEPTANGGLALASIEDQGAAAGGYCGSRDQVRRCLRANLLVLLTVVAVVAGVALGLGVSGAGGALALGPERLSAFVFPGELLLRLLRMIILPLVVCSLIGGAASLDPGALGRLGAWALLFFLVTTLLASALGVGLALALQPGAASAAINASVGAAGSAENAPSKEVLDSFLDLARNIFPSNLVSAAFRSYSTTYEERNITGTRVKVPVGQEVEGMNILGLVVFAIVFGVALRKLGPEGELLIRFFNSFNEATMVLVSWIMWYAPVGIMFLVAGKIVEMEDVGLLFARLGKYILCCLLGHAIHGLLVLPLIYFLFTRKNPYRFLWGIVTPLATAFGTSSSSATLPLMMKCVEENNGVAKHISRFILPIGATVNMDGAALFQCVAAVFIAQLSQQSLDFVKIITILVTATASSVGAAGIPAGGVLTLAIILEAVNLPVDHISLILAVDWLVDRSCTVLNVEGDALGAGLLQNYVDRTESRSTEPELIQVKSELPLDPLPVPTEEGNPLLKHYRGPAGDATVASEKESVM
T6 sequence (Q96SW2 whole entry): as the sequence (Q96SW2 whole entry) above
T6 sequence (Q16531 whole entry partner): as the sequence (Q16531 whole entry partner) above
Method: as §4, §5, §3, §6

dTAG-HA SLC39A7 = molecular target: T7, dTAG-HA SLC39A7 (Homo sapiens, UniProt Q92504+Q96SW2); experiment: Targeted degradation of dTAG-tagged SLC39A7 (western blot); details: HAP1, 0.5 µM, 24, 48 or 72 hours
T7 construct: expressed in transfected cells
Method: as §4, §5, §3, §6

SMILES | abundance of exogenous SLC9A6 (Strep/HA SLC9A6) | degradation of exogenous SLC9A2 (Strep/HA SLC9A2) | initiation of degradation (time course) (dTAG-HA SLC30A9) | initiation of degradation (time course) (dTAG-HA SLC2A3; HAP1, dTAG-HA SLC2A3, 0.5 µM) | time to degradation of the glycosylated form (upper band) of dTAG-HA SLC38A2 (dTAG-HA SLC38A2) | initiation of degradation (time course) (dTAG-HA SLC1A5; HAP1, dTAG-HA SLC1A5) | reversibility of degradation of the target SLC (dTAG-HA SLC39A7) | degradation of dTAG-HA SLC2A3 (dTAG-HA SLC2A3; HAP1, LS180 and HCT15 cells, 0.5 µM, 72 hours) | degradation of SLC2A3 tagged on the N- or C-terminus with dTAG-HA (dTAG-HA SLC2A3; two HAP1 cell lines, 24 hours) | degradation of the target SLC (dTAG-HA SLC38A2; dTAG-HA SLC38A2, 16, 24 or 48 hours) | degradation of dTAG-HA SLC1A5 (dTAG-HA SLC1A5; LOVO, SW620, CAKI and SW480 cell lines, 48 hours)
Cc1cc(-c2ccc(C(=O)NCCOCCOCCOCCOCCNc3cccc4c3C(=O)N(C3CCC(=O)NC3=O)C4=O)cc2N2CCC(c3[nH]cnc3C)CC2)ccc1F (stereo not drawn) [d9A1-2] | not significantly affected | prompted degradation | – | – | – | – | – | – | – | – | –
CC[C@H](C(=O)N1CCCC[C@H]1C(=O)O[C@H](CCc1ccc(OC)c(OC)c1)c1ccccc1OCC(=O)NCCCOCCOCCOCCCNC(=O)COc1cccc2c1C(=O)N(C1CCC(=O)NC1=O)C2=O)c1cc(OC)c(OC)c(OC)c1 (stereo partly drawn) [dTAG7] | – | – | ≤ 6 h | ≤ 6 h | within five hours | ≤ 6 h | reversible degradation | – | – | – | –
CC[C@H](C(=O)N1CCCC[C@H]1C(=O)O[C@H](CCc1ccc(OC)c(OC)c1)c1ccccc1OCC(=O)NCCCCCCOc1cccc2c1C(=O)N(C1CCC(=O)NC1=O)C2=O)c1cc(OC)c(OC)c(OC)c1 (stereo partly drawn) [dTAG13] | – | – | – | – | within five hours | – | – | completely degraded | degraded in both | Near-complete degradation | degradation was observed
